Measurements from patent publication US20070071833A1, “Fungicidal mixtures for controlling rice pathogens” (BASF Aktiengesellschaft, priority 2003, published 2007).

Tested on: Cochliobolus miyabeanus
Assay: activity against brown spot of rice caused by Cochliobolus miyabeanus, protective application (potted rice seedlings)
Format: in vivo
Details: individual active compound, rice cultivar Tai-Nong 67, protective spray, evaluated after six days
Protocol: The active compounds, separately or jointly, were prepared as a stock solution with 0.25% by weight of active compound in acetone or DMSO. 1% by weight of the emulsifier Uniperol® EL (wetting agent having emulsifying and dispersing action based on ethoxylated alkylphenols) was added to this solution, and the solution was diluted with water to the desired concentration.
Use example—activity against brown spot of rice caused by Cochliobolus miyabeanus, protective application
Leaves of potted rice seedlings of the cultivar “Tai-Nong 67” were sprayed to runoff point with an aqueous suspension of the concentration of active compound stated below. The next day, the plants were inoculated with an aqueous spore suspension of Cochliobolus miyabeanus. The test plants were then placed in climatized chambers at 22-24° C. and 95-99% relative atmospheric humidity for six days. The extent of the development of the infection on the leaves was then determined visually.
Evaluation was carried out by determining the percentage of infected leaf area. These percentages were converted into efficacies.
The efficacy (E) is calculated as follows using Abbot's formula: E=(1−α/β)·100 • α corresponds to the fungicidal infection of the treated plants in % and • β corresponds to the fungicidal infection of the untreated (control) plants in %
An efficacy of 0 means that the infection level of the treated plants corresponds to that of the untreated control plants; an efficacy of 100 means that the treated plants were not infected.
The expected efficacies of mixtures of active compounds are determined using Colby's formula (R. S. Colby, Weeds, 15, 20-22, 1967) and compared with the observed efficacies.
Colby's formula: E=x+y−x·y/100 • E expected efficacy, expressed in % of the untreated control, when using the mixture of the active compounds A and B at the concentrations a and b • x efficacy, expressed in % of the untreated control, when using the active compound A at the concentration a • y efficacy, expressed in % of the untreated control, when using the active compound B at the concentration b

SMILES | Efficacy in % of the untreated control (1 ppm in the spray liquor) [%] | Efficacy in % of the untreated control (4 ppm in the spray liquor) [%]
CC1CCN(c2c(-c3c(F)cc(F)cc3F)c(Cl)nc3ncnn23)CC1 [I, 5-chloro-7-(4-methylpiperidin-1-yl)-6-(2,4,6-trifluorophenyl)-[1,2,4]tri-azolo[1,5-a]pyrimidine] | 4 | 28
S1SSSSSSS1 [II (sulfur), sulfur] | 4 | 4
CC1CCN(c2c(-c3c(F)cccc3F)c(Cl)nc3ncnn23)CC1 [comparative compound A] | 28 | 40
C[C@H](Nc1c(-c2c(F)cc(F)cc2F)c(Cl)nc2ncnn12)C(F)(F)F [comparative compound B] | 0 | 16
